In patent US9809623B2, “α4β7 peptide monomer and dimer antagonists” (Protagonist Therapeutics, Inc., priority 2014, dated 2017):
Numbered stars: 1 amine (or outer) side, 2 acyl side, 3 side chain; on linkers, the order of the positions; unused ones are H or OH. Bridge positions count the residues as written; N and C are the ends. Square brackets hold non-standard residues; d marks the D form. Peptide text beside a SMILES is read from it. I, II: the chains in the order shown. 2Nal = N[C@@H](Cc1ccc2ccccc2c1)C(=O)O; Diglycolyl = O=C(COCC(=O)[*:2])[*:1]; NMeR = CN[C@@H](CCCNC(=N)N)C(=O)O; NMeK = CN[C@@H](CCCCN)C(=O)O; Pen = CC(C)(S)[C@H](N)C(=O)O; dNMeK = CN[C@H](CCCCN)C(=O)O

Test: Intestinal Wash Assay
Type: in vitro ADME
Parameters: dose or concentration left out as unconfirmed
Conditions: rat, rat intestinal wash fluid (small intestine); Table 4-C, t1/2
Description: Intestinal wash assay solution was prepared from rats fasted for at least 6 hours prior. The animals were euthanized and a midline incision was made from the point of the jaw to the pubis. The abdomen and chest were opened by making 2 incisions through the anterior chest wall on either side. Hemostats were used to clamp off both ends of the animal's stomach—where the esophagus meets the stomach and where the stomach meets the duodenum. A hemostat was also used to clamp 2-3 cm down the intestine from where the stomach meets the duodenum.
Intestinal wash assay solution was prepared by separating 20 cm of the small intestine from the body. Once separated 20 cm, the end was clamped with a hemostat and the section cut from the body, leaving the hemostats in place on the removed section. 1 mL of chilled saline was drawn up with a 1 mL syringe. One end of the intestine was held up and the clamp removed. Approximately 2-2.5 cm of the gavage needle was inserted into the intestine, and the saline was slowly injected. The fluid was massaged down the length of the intestine using gloved fingers. The gavage needle was removed and the clamp was replaced on the end of the intestine. The intestine was sat straight and a q-tip was run firmly up and down the length of the outside of the intestine approximately 3-6 times to mix the enzymes with the saline. One end of the intestine was held up and some of the fluid was carefully moved at the top down. The clamp was removed and that end of the intestine was set into a small weigh boat on ice. The other end of the intestine was carefully picked up and held vertically. Gloved fingers were gently run down it to squeeze the fluid into the container. The previous steps saline injection and fluid procurement steps were repeated twice using only 0.5 mL of chilled saline. The sample was pipetted from the weigh boat into a centrifuge tube and placed on ice. All intestinal wash samples were spun down in a cold centrifuge at 12,000×g for 10 minutes. The supernatant from the top of each centrifuged sample was pipetted into cryotubes, and kept on ice until use.
Intestinal wash assays were performed using intestinal wash assay solution prepared as described above. A sufficient amount of rat intestinal wash was thawed. For each sample, 200 uL of rat intestinal wash fluid was pipetted into 1.5 mL Eppendorf tubes (number of tubes for experiment=number of test peptides×N). The tubes were pre-incubated for about 10 minutes in a water bath at 37° C.
Peptide working solutions ([…]) were prepared by combining 2 μl of 10 mM DMSO stock with 128 μl 100 mM Tris pH 7.5.
Peptide quench solvent (50% ACN-50% MeOH-5% Formic Acid)+IS (5 ug/ml; 1 ul of 10 mg/mL IS per 2 mL quench solvent) was prepare and a quench plate prepared and placed on ice. 200 ul of quench solution was added to each well of the quench plate for T=0, 10, 20, 30, 60 and 180 min collection.
For each test sample and a positive control, 30 ul of peptide working solution was added to a tube of intestinal wash fluid. The tube was gently vortexed and 30 ul was immediately removed and quenched in T=0 well of quench plate (pipetted directly into the quench solution). This well was covered tightly to prevent evaporation. 30 ul aliquots were removed at T=10 min, T=20 min, T=30 min, T=60 min, and T=180 min, and quenched. When all time points were collected, the quench plate was centrifuged at 10,000 rpm for 10 minutes. 150 uL of each supernatant was transferred to a polypropylene 96-well collection plate. 300 ul Mobile Phase A was added to each collection, and LC/MS/MS analysis was performed to determine the amount or concentration of peptide remaining in each test sample and positive control.

| Compound | half-life [h] |
| --- | --- |
| CC(=O)N[C@H]1CSSC[C@@H](C(=O)NCC(=O)N[C@@H](CCC(=O)O)C(N)=O)NC(=O)[C@H](CC(C)C)NC(=O)[C@H]([C@@H](C)O)NC(=O)[C@H](CC(=O)O)NC(=O)[C@H](CO)NC(=O)[C@H](CCCNC(=N)N)N(C)C1=O [compound 198, Ac-C-N-Me-R-S-D-T-L-C-G-E-NH2] (Ac-C[NMeR]SDTLCGE-NH2; disulfide 1-7) | 0.5 |
| CC(=O)N[C@@H]1C(=O)N(C)[C@@H](CCCNC(=N)N)C(=O)N[C@@H](CO)C(=O)N[C@@H](CC(=O)O)C(=O)N[C@@H]([C@@H](C)O)C(=O)N[C@@H](CC(C)C)C(=O)N[C@H](C(=O)N[C@@H](Cc2c[nH]c3ccccc23)C(=O)N[C@@H](CCC(=O)O)C(=O)N(C)[C@@H](CCCCNC(=O)COCC(=O)NCCCC[C@@H](C(N)=O)N(C)C(=O)[C@H](CCC(=O)O)NC(=O)[C@H](Cc2c[nH]c3ccccc23)NC(=O)[C@H]2NC(=O)[C@H](CC(C)C)NC(=O)[C@H]([C@@H](C)O)NC(=O)[C@H](CC(=O)O)NC(=O)[C@H](CO)NC(=O)[C@H](CCCNC(=N)N)N(C)C(=O)[C@@H](NC(C)=O)C(C)(C)SSC2(C)C)C(N)=O)C(C)(C)SSC1(C)C [compound 215, [Ac-Pen-(N-Me-Arg)-Ser-Asp-Thr-Leu-Pen-Trp-Glu-(N-Me-Lys)-NH2]2-DIG] (I: Ac-[Pen][NMeR]SDTL[Pen]WE[NMeK]-NH2 / II: Ac-[Pen][NMeR]SDTL[Pen]WE[NMeK]-NH2; disulfide I:1-I:7, II:1-II:7 (inferred); linker I:10-II:10 via Diglycolyl (inferred)) | > 6 |
| CC(=O)N[C@@H]1C(=O)N(C)[C@@H](CCCNC(=N)N)C(=O)N[C@@H](CO)C(=O)N[C@@H](CC(=O)O)C(=O)N[C@@H]([C@@H](C)O)C(=O)N[C@@H](CC(C)C)C(=O)N[C@H](C(=O)N[C@@H](Cc2c[nH]c3ccccc23)C(=O)N[C@@H](CCC(=O)O)C(=O)N(C)[C@H](CCCCNC(=O)COCC(=O)NCCCC[C@H](C(N)=O)N(C)C(=O)[C@H](CCC(=O)O)NC(=O)[C@H](Cc2c[nH]c3ccccc23)NC(=O)[C@H]2NC(=O)[C@H](CC(C)C)NC(=O)[C@H]([C@@H](C)O)NC(=O)[C@H](CC(=O)O)NC(=O)[C@H](CO)NC(=O)[C@H](CCCNC(=N)N)N(C)C(=O)[C@@H](NC(C)=O)C(C)(C)SSC2(C)C)C(N)=O)C(C)(C)SSC1(C)C [compound 214, [Ac-Pen-(N-Me-Arg)-Ser-Asp-Thr-Leu-Pen-Trp-Glu-(N-Me-D-Lys)-NH2]2-DIG] (I: Ac-[Pen][NMeR]SDTL[Pen]WE[dNMeK]-NH2 / II: Ac-[Pen][NMeR]SDTL[Pen]WE[dNMeK]-NH2; disulfide I:1-I:7, II:1-II:7 (inferred); linker I:10-II:10 via Diglycolyl (inferred)) | > 6 |
| CC(=O)N[C@@H]1C(=O)N(C)[C@@H](CCCNC(=N)N)C(=O)N[C@@H](CO)C(=O)N[C@@H](CC(=O)O)C(=O)N[C@@H]([C@@H](C)O)C(=O)N[C@@H](CC(C)C)C(=O)N[C@H](C(=O)N[C@@H](Cc2c[nH]c3ccccc23)C(=O)N[C@H](CCC(=O)O)C(=O)N[C@H](CCCCNC(=O)COCC(=O)NCCCC[C@@H](NC(=O)[C@@H](CCC(=O)O)NC(=O)[C@H](Cc2c[nH]c3ccccc23)NC(=O)[C@H]2NC(=O)[C@H](CC(C)C)NC(=O)[C@H]([C@@H](C)O)NC(=O)[C@H](CC(=O)O)NC(=O)[C@H](CO)NC(=O)[C@H](CCCNC(=N)N)N(C)C(=O)[C@@H](NC(C)=O)C(C)(C)SSC2(C)C)C(=O)O)C(=O)O)C(C)(C)SSC1(C)C [compound 216, (Ac-Pen-N-Me-R-S-D-T-L-Pen-W-e-k-OH)2-DIG] (I: Ac-[Pen][NMeR]SDTL[Pen]W[dE][dK]-OH / II: Ac-[Pen][NMeR]SDTL[Pen]W[dE][dK]-OH; disulfide I:1-I:7, II:1-II:7 (inferred); linker I:10-II:10 via Diglycolyl (inferred)) | > 6 |
| CC(=O)N[C@@H]1C(=O)N(C)[C@@H](CCCNC(=N)N)C(=O)N[C@@H](CO)C(=O)N[C@@H](CC(=O)O)C(=O)N[C@@H]([C@@H](C)O)C(=O)N[C@@H](CC(C)C)C(=O)N[C@H](C(=O)N[C@@H](Cc2ccc3ccccc3c2)C(=O)N[C@@H](CCC(=O)O)C(=O)N[C@H](CCCCNC(=O)COCC(=O)NCCCC[C@@H](NC(=O)[C@H](CCC(=O)O)NC(=O)[C@H](Cc2ccc3ccccc3c2)NC(=O)[C@H]2NC(=O)[C@H](CC(C)C)NC(=O)[C@H]([C@@H](C)O)NC(=O)[C@H](CC(=O)O)NC(=O)[C@H](CO)NC(=O)[C@H](CCCNC(=N)N)N(C)C(=O)[C@@H](NC(C)=O)C(C)(C)SSC2(C)C)C(N)=O)C(N)=O)C(C)(C)SSC1(C)C [compound 212, (Ac-Pen-N-Me-R-S-D-T-L-Pen-2-Nal-E-k-NH2)2-DIG] (I: Ac-[Pen][NMeR]SDTL[Pen][2Nal]E[dK]-NH2 / II: Ac-[Pen][NMeR]SDTL[Pen][2Nal]E[dK]-NH2; disulfide I:1-I:7, II:1-II:7 (inferred); linker I:10-II:10 via Diglycolyl (inferred)) | 1.63 |
| CC(=O)N[C@@H]1C(=O)N(C)[C@@H](CCCNC(=N)N)C(=O)N[C@@H](CO)C(=O)N[C@@H](CC(=O)O)C(=O)N[C@@H]([C@@H](C)O)C(=O)N[C@@H](CC(C)C)C(=O)N[C@H](C(=O)N[C@@H](Cc2c[nH]c3ccccc23)C(=O)N[C@H](CCC(=O)O)C(=O)N[C@H](CCCCNC(=O)COCC(=O)NCCCC[C@@H](NC(=O)[C@@H](CCC(=O)O)NC(=O)[C@H](Cc2c[nH]c3ccccc23)NC(=O)[C@H]2NC(=O)[C@H](CC(C)C)NC(=O)[C@H]([C@@H](C)O)NC(=O)[C@H](CC(=O)O)NC(=O)[C@H](CO)NC(=O)[C@H](CCCNC(=N)N)N(C)C(=O)[C@@H](NC(C)=O)C(C)(C)SSC2(C)C)C(N)=O)C(N)=O)C(C)(C)SSC1(C)C [compound 211, (Ac-Pen-N-Me-R-S-D-T-L-Pen-W-e-k-NH2)2-DIG] (I: Ac-[Pen][NMeR]SDTL[Pen]W[dE][dK]-NH2 / II: Ac-[Pen][NMeR]SDTL[Pen]W[dE][dK]-NH2; disulfide I:1-I:7, II:1-II:7 (inferred); linker I:10-II:10 via Diglycolyl (inferred)) | 2.98 |

Test: Cysteine/Cystine Redox Stability Assay
Type: physicochemical
Conditions: Table 4-C; ORP where half of the oxidized peptide remains
Description: Peptides were diluted to 90 μM by adding 4.545 μl of a 10 mM peptide DMSO stock to 495.45 μl of 100 mM Tris-Cl, pH 7.5. Aliquots of […] were transferred to 8 wells down a column of a 96 well plate. 20 μl of 2.5 mM Cystine in 100 mM Tris-Cl, pH 7.5 was added to each well. Cysteine stock solutions in 100 mM Tris-Cl, pH 7.5 were prepared fresh at the following concentrations: 400 mM, 200 mM, 80 mM, 44 mM, 22 mM, 11 mM, 5.5 mM and blank. At time 0, 25 μl of each cysteine stock solution was added to the 55 μl of cystine/peptide solution, and the mixture was incubated at room temperature for 40 min. The samples were quenched by adding 20 μl of 5M acetic acid and analyzed by reverse phase HPLC. The fraction of oxidized peptide was calculated and plotted against the calculated oxidation reduction potential (ORP) as defined by the Nernst equation. The ORP where half of the oxidized peptide remains is shown below.

| Compound | Cys/CySS (mV) |
| --- | --- |
| CC(=O)N[C@@H]1C(=O)N(C)[C@@H](CCCNC(=N)N)C(=O)N[C@@H](CO)C(=O)N[C@@H](CC(=O)O)C(=O)N[C@@H]([C@@H](C)O)C(=O)N[C@@H](CC(C)C)C(=O)N[C@H](C(=O)N[C@@H](Cc2ccc3ccccc3c2)C(=O)N[C@@H](CCC(=O)O)C(=O)N[C@H](CCCCN)C(N)=O)C(C)(C)SSC1(C)C [compound 210, Ac-Pen-N-Me-R-S-D-T-L-Pen-2-Nal-E-k-NH2] (Ac-[Pen][NMeR]SDTL[Pen][2Nal]E[dK]-NH2; disulfide 1-7) | <−300 |
| CC(=O)N[C@@H]1C(=O)N(C)[C@@H](CCCNC(=N)N)C(=O)N[C@@H](CO)C(=O)N[C@@H](CC(=O)O)C(=O)N[C@@H]([C@@H](C)O)C(=O)N[C@@H](CC(C)C)C(=O)N[C@H](C(=O)N[C@@H](Cc2c[nH]c3ccccc23)C(=O)N[C@H](CCCCN)C(N)=O)C(C)(C)SSC1(C)C [compound 208, Ac-Pen-N-Me-R-S-D-T-L-Pen-W-k-NH2] (Ac-[Pen][NMeR]SDTL[Pen]W[dK]-NH2; disulfide 1-7) | <−300 |
